# From ChEMBL document CHEMBL1134747, “Synthesis and antifungal activities of novel 1,3-beta-D-glucan synthase inhibitors. Part 1” (Bioorg Med Chem Lett, 2001)
# Tests used:
# Candida albicans [1] = test: In vitro antifungal activity against Candida albicans CY1002 in the presence of 80% calf serum; assay type: functional, organism-based
# [2] = Hepatotoxicity using isolated ICR mouse hepatocytes by inclusion body formation assay (In Vitro); assay type: functional, cell-based; settings: Hepatocyte
# Mus musculus = test: In vivo antifungal activity against systemic candidiasis in mouse model after a single iv administration; assay type: functional
# Beta-1,3-glucan synthase = Beta-1,3-glucan synthase (Candida albicans, UniProt O13428); test: Inhibition of 1,3-beta-D-glucan synthase (GS) from candida albicans
# Candida albicans [3] = test: In vitro antifungal activity against Candida albicans […] in the absence of 80% calf serum; assay type: functional, organism-based
# [4] = Hepatotoxicity determined using isolated ICR mouse hepatocytes by inclusion body formation assay (In Vitro); assay type: functional, cell-based; settings: Hepatocyte
# Beta-1,3-glucan synthase, sequence (O13428 whole entry): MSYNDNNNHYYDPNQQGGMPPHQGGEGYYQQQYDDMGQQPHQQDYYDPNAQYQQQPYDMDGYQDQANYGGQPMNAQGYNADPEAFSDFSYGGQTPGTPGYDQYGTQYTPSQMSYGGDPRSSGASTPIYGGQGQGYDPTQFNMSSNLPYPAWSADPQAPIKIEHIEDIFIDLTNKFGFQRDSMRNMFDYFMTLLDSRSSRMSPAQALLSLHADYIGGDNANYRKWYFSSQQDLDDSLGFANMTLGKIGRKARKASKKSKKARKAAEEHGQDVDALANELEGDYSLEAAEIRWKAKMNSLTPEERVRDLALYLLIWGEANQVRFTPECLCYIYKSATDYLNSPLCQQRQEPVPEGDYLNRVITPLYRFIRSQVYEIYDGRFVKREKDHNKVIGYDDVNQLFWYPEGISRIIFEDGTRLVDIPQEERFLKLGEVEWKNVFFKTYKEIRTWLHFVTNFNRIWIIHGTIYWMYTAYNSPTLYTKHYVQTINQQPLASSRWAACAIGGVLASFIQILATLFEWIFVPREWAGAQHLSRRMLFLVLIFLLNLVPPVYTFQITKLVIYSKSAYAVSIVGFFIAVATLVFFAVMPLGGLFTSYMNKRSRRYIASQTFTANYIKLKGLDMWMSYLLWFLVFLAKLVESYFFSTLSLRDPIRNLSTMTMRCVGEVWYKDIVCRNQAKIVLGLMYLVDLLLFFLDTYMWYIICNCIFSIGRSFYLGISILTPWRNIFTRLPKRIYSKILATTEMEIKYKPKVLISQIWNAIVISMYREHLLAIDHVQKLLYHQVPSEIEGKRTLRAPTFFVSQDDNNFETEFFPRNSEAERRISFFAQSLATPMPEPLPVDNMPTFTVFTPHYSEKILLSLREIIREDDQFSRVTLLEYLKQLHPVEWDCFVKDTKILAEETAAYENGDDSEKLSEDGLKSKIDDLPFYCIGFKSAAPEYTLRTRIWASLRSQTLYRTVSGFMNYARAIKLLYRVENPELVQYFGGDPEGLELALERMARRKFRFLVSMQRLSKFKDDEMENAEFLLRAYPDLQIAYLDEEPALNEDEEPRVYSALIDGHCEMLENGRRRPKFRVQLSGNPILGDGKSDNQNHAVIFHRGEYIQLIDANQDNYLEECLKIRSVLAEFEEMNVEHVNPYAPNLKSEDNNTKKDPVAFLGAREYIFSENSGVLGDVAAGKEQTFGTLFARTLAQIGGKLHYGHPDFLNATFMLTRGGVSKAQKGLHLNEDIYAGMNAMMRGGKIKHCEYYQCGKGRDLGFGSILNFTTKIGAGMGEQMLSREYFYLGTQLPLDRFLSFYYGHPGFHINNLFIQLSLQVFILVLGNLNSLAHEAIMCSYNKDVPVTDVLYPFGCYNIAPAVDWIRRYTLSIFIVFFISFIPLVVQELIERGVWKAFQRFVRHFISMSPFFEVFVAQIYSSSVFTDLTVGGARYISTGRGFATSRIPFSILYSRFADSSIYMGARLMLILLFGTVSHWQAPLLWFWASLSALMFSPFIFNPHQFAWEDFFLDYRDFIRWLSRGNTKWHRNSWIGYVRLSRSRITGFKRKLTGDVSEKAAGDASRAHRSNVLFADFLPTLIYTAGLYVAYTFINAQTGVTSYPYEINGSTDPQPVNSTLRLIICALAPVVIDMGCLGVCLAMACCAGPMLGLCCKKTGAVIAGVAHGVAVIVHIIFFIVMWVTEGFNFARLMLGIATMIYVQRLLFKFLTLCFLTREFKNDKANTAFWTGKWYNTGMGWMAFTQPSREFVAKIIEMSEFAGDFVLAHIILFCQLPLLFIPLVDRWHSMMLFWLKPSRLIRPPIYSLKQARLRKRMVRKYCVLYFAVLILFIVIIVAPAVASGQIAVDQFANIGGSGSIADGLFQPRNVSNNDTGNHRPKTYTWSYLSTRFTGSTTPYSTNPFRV
Structure (SMILES),IC50 (Candida albicans [1]),IC50 [2],ED50 (Mus musculus),"IC50 (Beta-1,3-glucan synthase)",IC50 (Candida albicans [3]),IC50 [4]
CCCCCCCCCCCCC[C@@H]1CC(=O)N[C@@H]([C@@H](C)O)C(=O)N[C@H](C)C(=O)N[C@@H](Cc2ccc(O)cc2)C(=O)N[C@@H](C(C)C)C(=O)N2C[C@H](O)C[C@H]2C(=O)N[C@@H]([C@@H](C)O)C(=O)N[C@@H]([C@@H](C)O)C(=O)N2CC[C@H](O)[C@H]2C(=O)N[C@@H]([C@H](O)CC(N)=O)C(=O)NCC(=O)N[C@@H]([C@@H](C)O)C(=O)N[C@@H](CCCNC(=O)C(N)CCCN)C(=O)O1 (some centres not stated),0.47 µg/mL,10 µg/mL,0.2 mg/kg,8 nM,0.08 µg/mL,
CCCCCCCCCCCCC[C@@H]1CC(=O)N[C@@H]([C@H](C)O)C(=O)N[C@H](C)C(=O)N[C@@H](Cc2ccc(O)cc2)C(=O)N[C@@H](C(C)C)C(=O)N2C[C@H](O)C[C@H]2C(=O)N[C@@H]([C@@H](C)O)C(=O)N[C@@H]([C@@H](C)O)C(=O)N2CC[C@H](O)[C@H]2C(=O)N[C@@H]([C@H](O)CC(N)=O)C(=O)NCC(=O)N[C@@H]([C@@H](C)O)C(=O)N[C@@H](CCCNC(C)=O)C(=O)O1,,,,230 nM,,
CCCCCCCCCCCCC[C@@H]1CC(=O)N[C@@H]([C@@H](C)O)C(=O)N[C@H](C)C(=O)N[C@@H](Cc2ccc(O)cc2)C(=O)N[C@@H](C(C)C)C(=O)N2C[C@H](O)C[C@H]2C(=O)N[C@@H]([C@@H](C)O)C(=O)N[C@@H]([C@@H](C)O)C(=O)N2CC[C@H](O)[C@H]2C(=O)N[C@@H]([C@H](O)CC(N)=O)C(=O)NCC(=O)N[C@H]([C@@H](C)O)C(=O)N[C@@H](CCCNC(=O)CN)C(=O)O1,,,,20 nM,,
CCCCCCCCCCCCC[C@@H]1CC(=O)N[C@@H]([C@@H](C)O)C(=O)N[C@H](C)C(=O)N[C@@H](Cc2ccc(O)cc2)C(=O)N[C@@H](C(C)C)C(=O)N2C[C@H](O)C[C@H]2C(=O)N[C@@H]([C@@H](C)O)C(=O)N[C@@H]([C@@H](C)O)C(=O)N2CC[C@H](O)[C@H]2C(=O)N[C@@H]([C@H](O)CC(N)=O)C(=O)NCC(=O)N[C@@H]([C@@H](C)O)C(=O)N[C@H](CCCNC(=O)C(N)CCCN)C(=O)O1 (some centres not stated),0.33 µg/mL,30 µg/mL,0.1 mg/kg,5 nM,0.12 µg/mL,
CCCCCCCCCCCCC[C@@H]1CC(=O)N[C@@H]([C@@H](C)O)C(=O)N[C@H](C)C(=O)N[C@@H](Cc2ccc(O)cc2)C(=O)N[C@@H](C(C)C)C(=O)N2C[C@H](O)C[C@H]2C(=O)N[C@@H]([C@@H](C)O)C(=O)N[C@@H]([C@@H](C)O)C(=O)N2CC[C@H](O)[C@H]2C(=O)N[C@@H]([C@H](O)CC(N)=O)C(=O)NCC(=O)N[C@@H]([C@@H](C)O)C(=O)N[C@@H](CCCN)C(=O)O1,0.57 µg/mL,10 µg/mL,,12 nM,0.02 µg/mL,
CCCCCCCCCCCCC[C@@H]1CC(=O)N[C@@H]([C@@H](C)O)C(=O)N[C@H](C)C(=O)N[C@@H](Cc2ccc(O)cc2)C(=O)N[C@@H](C(C)C)C(=O)N2C[C@H](O)C[C@H]2C(=O)N[C@@H]([C@@H](C)O)C(=O)N[C@@H]([C@@H](C)O)C(=O)N2CC[C@H](O)[C@H]2C(=O)N[C@@H]([C@H](O)CC(N)=O)C(=O)NCC(=O)N[C@@H]([C@@H](C)O)C(=O)N[C@@H](CCCNC(=O)OC(C)(C)C)C(=O)O1,,,0.22 mg/kg,,,
CCCCCCCCCCCCC[C@@H]1CC(=O)N[C@@H]([C@H](C)O)C(=O)N[C@H](C)C(=O)N[C@@H](Cc2ccc(OCc3ccccc3)cc2)C(=O)N[C@@H](C(C)C)C(=O)N2C[C@H](O)C[C@H]2C(=O)N[C@H]([C@@H](C)O)C(=O)N[C@@H]([C@@H](C)O)C(=O)N2CC[C@H](O)[C@H]2C(=O)N[C@@H]([C@H](O)CC(N)=O)C(=O)NCC(=O)N[C@@H]([C@@H](C)O)C(=O)N[C@@H](CCCN)C(=O)O1,,,,> 130 nM,,
CCCCCCCCCCCCC[C@@H]1CC(=O)N[C@@H]([C@@H](C)O)C(=O)N[C@H](C)C(=O)N[C@@H](Cc2ccc(O)cc2)C(=O)N[C@@H](C(C)C)C(=O)N2C[C@H](O)C[C@H]2C(=O)N[C@@H]([C@@H](C)O)C(=O)N[C@@H]([C@@H](C)O)C(=O)N2CC[C@H](O)[C@H]2C(=O)N[C@@H]([C@H](O)CC#N)C(=O)NCC(=O)N[C@@H]([C@@H](C)O)C(=O)N[C@@H](CCN)C(=O)O1,,,,19 nM,,
CCCCCCCCCCCCC[C@@H]1CC(=O)N[C@@H]([C@@H](C)O)C(=O)N[C@H](C)C(=O)N[C@@H](Cc2ccc(O)cc2)C(=O)N[C@@H](C(C)C)C(=O)N2C[C@H](O)C[C@H]2C(=O)N[C@@H]([C@@H](C)O)C(=O)N[C@@H]([C@@H](C)O)C(=O)N2CC[C@H](O)[C@H]2C(=O)N[C@@H]([C@H](O)CC(N)=O)C(=O)NCC(=O)N[C@@H]([C@@H](C)O)C(=O)N[C@@H](CCCN(C)C)C(=O)O1,,,,45 nM,,
CCCCCCCCCCCCC[C@@H]1CC(=O)N[C@@H]([C@@H](C)O)C(=O)N[C@H](C)C(=O)N[C@@H](Cc2ccc(O)cc2)C(=O)N[C@@H](C(C)C)C(=O)N2C[C@H](O)C[C@H]2C(=O)N[C@@H]([C@@H](C)O)C(=O)N[C@@H]([C@@H](C)O)C(=O)N2CC[C@H](O)[C@H]2C(=O)N[C@@H]([C@H](O)CC(N)=O)C(=O)NCC(=O)N[C@H]([C@@H](C)O)C(=O)N[C@@H](CCCN(CCN)CCN)C(=O)O1,0.42 µg/mL,,0.05 mg/kg,2 nM,0.1 µg/mL,10 µg/mL
CCCCCCCCCCCCC[C@@H]1CC(=O)N[C@@H]([C@@H](C)O)C(=O)N[C@H](C)C(=O)N[C@@H](Cc2ccc(O)cc2)C(=O)N[C@@H](C(C)C)C(=O)N2C[C@H](O)C[C@H]2C(=O)N[C@@H]([C@@H](C)O)C(=O)N[C@@H]([C@@H](C)O)C(=O)N2CC[C@H](O)[C@H]2C(=O)N[C@@H]([C@H](O)CCN)C(=O)NCC(=O)N[C@@H]([C@@H](C)O)C(=O)N[C@@H](CCN)C(=O)O1,0.18 µg/mL,10 µg/mL,0.04 mg/kg,6 nM,0.01 µg/mL,
CCCCCCCCCCCCC[C@@H]1CC(=O)N[C@@H]([C@@H](C)O)C(=O)N[C@H](C)C(=O)N[C@@H](Cc2ccc(O)cc2)C(=O)N[C@@H](C(C)C)C(=O)N2C[C@H](O)C[C@H]2C(=O)N[C@@H]([C@@H](C)O)C(=O)N[C@@H]([C@@H](C)O)C(=O)N2CC[C@H](O)[C@H]2C(=O)N[C@@H]([C@H](O)CC(N)=O)C(=O)NCC(=O)N[C@@H]([C@@H](C)O)C(=O)N[C@@H](CCCO)C(=O)O1,,,,> 520 nM,,
CCCCCCCCCCCCC[C@@H]1CC(=O)N[C@@H]([C@@H](C)O)C(=O)N[C@H](C)C(=O)N[C@@H](Cc2ccc(OC)cc2)C(=O)N[C@@H](C(C)C)C(=O)N2C[C@H](O)C[C@H]2C(=O)N[C@@H]([C@@H](C)O)C(=O)N[C@@H]([C@@H](C)O)C(=O)N2CC[C@H](O)[C@H]2C(=O)N[C@@H]([C@H](O)CC(N)=O)C(=O)NCC(=O)N[C@@H]([C@@H](C)O)C(=O)N[C@@H](CCCN)C(=O)O1,,,,24 nM,,
